# In patent EP1591123A1, “USES OF NARINGENIN, NARINGIN AND SALTS THEREOF AS EXPECTORANTS IN THE TREATMENT OF COUGH, AND COMPOSITIONS THEREOF” (Su, Wei-wei, priority 2003, dated 2004):
# Counter-ions that a name gives are not always drawn.
# Key:
# [1] = test system: NIH mice; experiment: Antitussive test of Naringin, spraying with concentrated ammonia liquor (Example 28); format: in vivo; details: 0.2 ml/20g of 1.5 mg/ml
# Description: 1.Animals: As the stock animals, totally 130 NIH mice, male, each weighed 18.2~21.7g within ordinary standard. Weigh and number each mice accurately first, then pick out the 120 healthy ones who weighed in range from 18.5~21.0g. Ranked in weigh, they were divided into 8 groups in random with each 15. Set up reference groups of negative and positive, and sample groups of high-dose, mid-dose, low-dose Naringin and sodium Naringinate.
# • 1) Blank control group: physiological saline, 0.9% NaCl; • 2) Positive control group: 30 mg dextromethorphan hydrobromide was weighed into a 20ml volumetric flask, and physiological saline was accurately added to the volume to obtain the solution for positive control at concentration of 5mg/ml° • 3) Group of low-dose sample Naringin: Proper amount of Naringin was weighed into a suitable volumetric flask, and physiological saline was added to the volume to obtain the solution at concentration of 0.5mg/ml. • 4) Group of mid-dose sample Naringin: Proper amount of Naringin was weighed into a suitable volumetric flask, and physiological saline was added to the volume to obtain the solution at concentration of 1.5mg/ml. • 5) Group of high-dose sample Naringin: Proper amount of Naringin was weighed into a suitable volumetric flask, and physiological saline was added to the volume to obtain the solution at concentration of 4.5mg/ml. • 6) Group of low-dose sample sodium Naringinate: Proper amount of sodium Naringin was weighed into a suitable volumetric flask, and physiological saline was added to the volume to obtain the solution at concentration of 0.5mg/ml. • 7) Group of mid-dose sample sodium Naringinate: Proper amount of sodium Naringin was weighed into a suitable volumetric flask, and physiological saline was added to the volume to obtain the solution at concentration of 1.5mg/ml. • 8) Group of high-dose sample sodium Naringinate: Proper amount of sodium Naringin was weighed into a suitable volumetric flask, and physiological saline was added to the volume to obtain the solution at concentration of4.5mg/ml.
# One hour after intra-gastrointestinal administering for the mice, spray with concentrated ammonia liquor for certain intervals. Immediately the spraying was over, put away the mice outside and observe the tussive action. Mark down the times for which they coughed within 1 minute. Only when they coughed, which was characteristic of compression of abdomen or chest with their mouths open, and making coughing noise, for more than 3 times within a minute, tussive action could be admitted.
# Calculate the median effective dose(EDT50) with sequential trials. Work out the amount of R with the formula below. If R is greater than 130%, it means the drug will be effective on antitussive action. If R is greater than 150%, it means the drug will be remarkably effective on antitussive action. The formula is shown as below: R =(EDT50 of the treatmnet)/(EDT50 of the control)× 100% [formula] EDT50=log-1c/n(n for amount of animals, c for summation of rx, r for amount of animals in each group, x for logarithm of the dose (time for spraying) )
# [2] = test system: mice; experiment: Antitussive test of Naringenin, spray by high concentration ammonia (Example 30); format: in vivo; details: sample concentration 1.5 mg/ml
# Description: 1. Animal: 120 healthy male mice weighing 19.5-22.1g was grouped into 8 groups random after labeled, which was selected from 130 male mice weighing 19.3-22.6g. Every group was 15 mice. Eight group were set including negative control group, positive control group, high dose group of Naringenin, middle dose group of Naringenin, low dose group of Naringenin, high dose group of sodium salt of Naringenin, middle dose group of sodium salt of Naringenin, low dose group of sodium salt of Naringenin.
# • 1) Blank control group: physiological saline, 0.9% NaCl; • 2) Positive control group: 30mg Dextromethorphan Hydrobromide was dissolve into 20 ml physiological saline and the sample concentration was 1.5 mg/ml to obtain the solution for positive control. • 3) low dose group of Naringenin: weighting out the appropriate amount of Naringenin and dissolving it in physiological saline, then the sample concentration was 0.5 mg/ml. • 4) middle dose group of Naringenin: weighting out the appropriate amount of Naringenin and dissolving it in physiological saline, then the sample concentration was 1.5mg/ml. • 5) high dose group of Naringenin: weighting out the appropriate amount of Naringenin and dissolving it in physiological saline, then the sample concentration was 4.5 mg/ml. • 6) low dose group of sodium salt of Naringenin: weighting out the appropriate amount of sodium salt of Naringenin and dissolving it in physiological saline, then the sample concentration was 0.5 mg/ml. • 7) middle dose group of sodium salt of Naringenin: weighting out the appropriate amount of sodium salt of Naringenin and dissolving it in physiological saline, then the sample concentration was 1.5 mg/ml. • 8) high dose group of sodium salt of Naringenin: weighting out the appropriate amount of sodium salt of Naringenin and dissolving it in physiological saline, then the sample concentration was 4.5 mg/ml.
# Animals were oral administered, and were sprayed one hour later. After the spray took out the animals and observed the tussive action. Observed the time of tussis in one minutes, if it appeared typical tussis three times in one minutes(shrinking the abdomen muscle or shrinking chest, puffing mouth at the same time, sometimes appearing tussive sound), we consider it "appearing tussis", otherwise "no tussis".
# We calculated the spraying time that half of mice were tusisive by sequential method. And calculated the R, the drug was provided with effect of relieve a cough if R>130%. The drug was provided with remarkable effect of relieve a cough if R>150%. Underside is expressions: R=(EDT50 of the treatment)/(EDT50 of the control)× 100% [formula] EDT50=log^-1c/n ('n' is the number of animal, 'c' is the sum of 'rx' value, 'r' is the number of animal in every group, 'x' is the logarithm of dose(namely spray time).)
# [3] = EDT50 of the treatment / EDT50 of the control x 100%
smiles,measurement,setting,value
"COc1ccc2c(c1)[C@]13CCCC[C@@H]1[C@H](C2)N(C)CC3 [Dextromethorphan Hydrobromide, reference compound]",Effect of relieving cough,[1],"effective (If R is greater than 130%, it means the drug will be effective on antitussive action)"
same,R Value,[1]; [3],140.23%
same,EDT50,"[1]; mice, intra-gastrointestinal, ammonia spray 1 hour after dosing",56.82 s
same,R Value,[2]; [3],138.05%
same,EDT50,"[2]; mice, oral, dose 0.2 (mg/20g), spray one hour later",53.70 s
same,Effect of relieving cough,[2],effect (the drug was provided with effect of relieve a cough if R>130%)
